Experimental data as given in the NIST ThermoML archive (doi:10.1021/je400463n).

Experiment: mn = molality of the nth substance listed, in mol/kg
Conditions: 100 kPa, Liquid, Pycnometric method

CCCCCCCCCCCC[N+](C)(C)C.[Br-] [dodecyltrimethylammonium bromide] + O
mass density [kg/m3]
Conditions | 293.15 K | 298.15 K | 303.15 K | 308.15 K | 313.15 K | 318.15 K
m1 = 0.00608 | 998.345 | 997.176 | 995.77 | 994.144 | 992.319 | 990.306
m1 = 0.00707 | 998.368 | 997.197 | 995.79 | 994.162 | 992.336 | 990.321
m1 = 0.00796 | 998.388 | 997.216 | 995.807 | 994.178 | 992.35 | 990.334
m1 = 0.00897 | 998.411 | 997.237 | 995.827 | 994.196 | 992.367 | 990.349
m1 = 0.00999 | 998.434 | 997.259 | 995.847 | 994.214 | 992.383 | 990.364
m1 = 0.01096 | 998.456 | 997.28 | 995.866 | 994.232 | 992.399 | 990.379
m1 = 0.01199 | 998.48 | 997.302 | 995.886 | 994.25 | 992.416 | 990.394
m1 = 0.01299 | 998.503 | 997.324 | 995.905 | 994.268 | 992.432 | 990.409
m1 = 0.01398 | 998.524 | 997.343 | 995.923 | 994.286 | 992.448 | 990.424
m1 = 0.01503 | 998.543 | 997.363 | 995.942 | 994.304 | 992.466 | 990.44
m1 = 0.01596 | 998.556 | 997.376 | 995.956 | 994.32 | 992.48 | 990.454
m1 = 0.01802 | 998.592 | 997.408 | 995.986 | 994.345 | 992.506 | 990.48
m1 = 0.02001 | 998.622 | 997.435 | 996.013 | 994.37 | 992.532 | 990.503
m1 = 0.02494 | 998.695 | 997.505 | 996.077 | 994.432 | 992.587 | 990.558
m1 = 0.02994 | 998.775 | 997.58 | 996.147 | 994.498 | 992.647 | 990.616
m1 = 0.03501 | 998.85 | 997.647 | 996.212 | 994.557 | 992.706 | 990.671
m1 = 0.03995 | 998.918 | 997.712 | 996.271 | 994.615 | 992.76 | 990.721
m1 = 0.04505 | 998.991 | 997.78 | 996.336 | 994.675 | 992.817 | 990.774
m1 = 0.04973 | 999.061 | 997.845 | 996.396 | 994.733 | 992.871 | 990.824
m1 = 0.05498 | 999.145 | 997.923 | 996.47 | 994.801 | 992.935 | 990.883
m1 = 0.06001 | 999.217 | 997.992 | 996.535 | 994.86 | 992.993 | 990.938

CCCCCCCCCCCC[N+](C)(C)CCO.[Br-] [dodecyl(2-hydroxyethyl)dimethylammonium bromide] + O
mass density [kg/m3]
Conditions | 293.15 K | 298.15 K | 303.15 K | 308.15 K | 313.15 K | 318.15 K
m1 = 0.00798 | 998.5 | 997.328 | 995.92 | 994.291 | 992.462 | 990.446
m1 = 0.009 | 998.537 | 997.364 | 995.954 | 994.324 | 992.494 | 990.476
m1 = 0.01003 | 998.574 | 997.4 | 995.989 | 994.356 | 992.525 | 990.506
m1 = 0.01099 | 998.61 | 997.434 | 996.02 | 994.387 | 992.554 | 990.534
m1 = 0.01195 | 998.646 | 997.468 | 996.053 | 994.418 | 992.584 | 990.562
m1 = 0.013 | 998.684 | 997.503 | 996.087 | 994.451 | 992.616 | 990.593
m1 = 0.01395 | 998.716 | 997.536 | 996.117 | 994.481 | 992.644 | 990.621
m1 = 0.01498 | 998.747 | 997.566 | 996.147 | 994.511 | 992.676 | 990.65
m1 = 0.01595 | 998.774 | 997.591 | 996.174 | 994.537 | 992.701 | 990.679
m1 = 0.01793 | 998.831 | 997.647 | 996.226 | 994.588 | 992.75 | 990.727
m1 = 0.01991 | 998.886 | 997.7 | 996.278 | 994.637 | 992.8 | 990.776
m1 = 0.02489 | 999.025 | 997.835 | 996.408 | 994.766 | 992.92 | 990.893
m1 = 0.02994 | 999.159 | 997.963 | 996.535 | 994.888 | 993.043 | 991.013
m1 = 0.03493 | 999.299 | 998.101 | 996.667 | 995.018 | 993.17 | 991.136
m1 = 0.0399 | 999.439 | 998.235 | 996.795 | 995.142 | 993.291 | 991.254
m1 = 0.04493 | 999.582 | 998.372 | 996.93 | 995.274 | 993.419 | 991.378
m1 = 0.04982 | 999.714 | 998.5 | 997.055 | 995.395 | 993.537 | 991.49
m1 = 0.05488 | 999.856 | 998.637 | 997.186 | 995.52 | 993.66 | 991.613

CCCCCCCCCCCC[N+](C)(CCO)CCO.[Br-] [N,N-bis(2-hydroxyethyl)-N-methyldodecan-1-aminium bromide] + O
mass density [kg/m3]
Conditions | 293.15 K | 298.15 K | 303.15 K | 308.15 K | 313.15 K | 318.15 K
m1 = 0.00497 | 998.465 | 997.294 | 995.89 | 994.266 | 992.443 | 990.43
m1 = 0.00607 | 998.521 | 997.349 | 995.942 | 994.317 | 992.492 | 990.478
m1 = 0.00698 | 998.568 | 997.394 | 995.986 | 994.359 | 992.533 | 990.518
m1 = 0.00805 | 998.622 | 997.446 | 996.036 | 994.408 | 992.58 | 990.564
m1 = 0.00909 | 998.675 | 997.498 | 996.086 | 994.456 | 992.626 | 990.609
m1 = 0.01002 | 998.722 | 997.544 | 996.13 | 994.499 | 992.667 | 990.649
m1 = 0.01109 | 998.774 | 997.597 | 996.18 | 994.548 | 992.714 | 990.695
m1 = 0.01202 | 998.818 | 997.641 | 996.222 | 994.59 | 992.755 | 990.735
m1 = 0.01306 | 998.867 | 997.686 | 996.268 | 994.637 | 992.801 | 990.78
m1 = 0.01414 | 998.915 | 997.734 | 996.315 | 994.681 | 992.847 | 990.825
m1 = 0.01505 | 998.953 | 997.771 | 996.353 | 994.719 | 992.884 | 990.862
m1 = 0.01609 | 998.993 | 997.811 | 996.394 | 994.756 | 992.923 | 990.9
m1 = 0.01815 | 999.08 | 997.897 | 996.476 | 994.837 | 993.001 | 990.98
m1 = 0.02008 | 999.16 | 997.976 | 996.554 | 994.913 | 993.076 | 991.051
m1 = 0.02518 | 999.367 | 998.178 | 996.752 | 995.11 | 993.267 | 991.242
m1 = 0.03023 | 999.571 | 998.38 | 996.95 | 995.305 | 993.46 | 991.431
m1 = 0.03525 | 999.778 | 998.58 | 997.146 | 995.497 | 993.649 | 991.62
m1 = 0.04028 | 999.983 | 998.782 | 997.344 | 995.692 | 993.84 | 991.807
m1 = 0.04512 | 1000.19 | 998.981 | 997.539 | 995.884 | 994.027 | 991.991
m1 = 0.05025 | 1000.4 | 999.187 | 997.74 | 996.082 | 994.223 | 992.184
